Assay results as given in patent US12630520B2, “Left-handed bicyclic morpholine and salt thereof, preparation method therefor, pharmaceutical composition, and use” (Institute of Materia Medica, Chinese Academy of Medical …, priority 2019, dated 2026).

Tests used:
[1] = system: HepG2 cells; experiment: 4-Acetamidophenol (APAP)-induced in vitro hepatocyte injury, MTT and LDH; type: cell-based, human; conditions: HepG2, 10 μM, 8 mM APAP
Protocol: Human liver cancer HepG2 cell well retained the characteristics of normal human hepatocytes, and they were grown in a DMEM medium containing 10% of fetal calf cerium (containing 100 U/mL of penicillin and 100 μg/mL of streptomycin) at the culturing conditions: 37° C., 5% of CO2 and a saturated humidity. A solution containing 0.25% of trypsin and 0.02% of EDTA was used for digestions and passages.
(§1) A MTT method was adopted. The HepG2 cells were inoculated in a 96-well cell culture plate, and after 24 hour cultures, the (+)IMM-H014, the (−)IMM-H014 and the (±)IMM-H014 were added in a non-toxic concentration whilst the 4-acetamidophenol (APAP, a final concentration of 8 mM) was added thereto. A Bicyclol positive control group, a solvent control group and a model group were set for the experiment. The culture was continued for 24 h. 100 μL of the culture solution was taken and centrifuged, and a full-automatic biochemical analyzer in a LDH detection kit was utilized to detect the LDH level therein. The remaining culture solution was discarded, and to each well, 100 μL of a MTT (0.5 mg/mL) solution was added to continue the culture for 4 hours. The MTT solution was discarded, and to each well, 150 μL of DMSO was added. The mixture was oscillated by a mixing oscillator, and the absorbance value was measured at a wavelength of 570 nm in a microplate reader. Cell survival rate (%)=(OD mean of administration group/OD mean of solvent control group)×100%.
(§2) The data were presented as a number mean±standard deviation (x±SD).

[2] = system: HepG2 cells; experiment: Carbon tetrachloride (CCl4)-induced in vitro hepatocyte injury, MTT; type: cell-based, human; conditions: HepG2, 10 μM
Protocol: Human liver cancer HepG2 cells well retained the characteristics of normal human hepatocytes, and they were grown in a DMEM medium containing 10% of fetal calf cerium (containing 100 U/mL of penicillin and 100 μg/mL of streptomycin) at the culturing conditions: 37° C., 5% of CO2 and a saturated humidity. A solution containing 0.25% of trypsin and 0.02% of EDTA was used for digestions and passages.
as §1, with “carbon tetrachloride (CCl4,” for “4-acetamidophenol (APAP,”, “0.6%)” for “8 mM)”, “They acted on the cells continuously” for “The culture was continued”, “h.” for “h. 100 μL of the culture solution was taken and centrifuged, and a full-automatic biochemical analyzer in a LDH detection kit was utilized to detect the LDH level therein.”, “The” for “The remaining”, “to” for “to continue the”
as §2

## COC(=O)c1cc(OC)c2c(c1-c1c(CO)cc(OC)c3c1OCO3)OCO2 [Bicyclol]
[1]; 24 h, MTT
  Survival rates (%): 50.67%
[1]; 24 h, MTT, 570 nm
  OD Mean ± SD: 0.454 ± 0.092
[1]; versus model group
  Cell survival rate increase (%): 32.2%
[2]; 0.6% CCl4, 24 h, MTT
  Survival rates (%): 89.47%
[2]; 0.6% CCl4, 24 h, MTT, 570 nm
  OD Mean ± SD: 0.819 ± 0.099
[2]; 0.6% CCl4, versus model group
  Cell survival rate increase (%): 15.36%
